Measurements: patent US11000568B2, “Means and methods for treating copper-related diseases” (HELMHOLTZ ZENTRUM MÜNCHEN—DEUTSCHES FORSCHUNGSZENTRUM FÜR …, priority 2015, dated 2021)
Like-named read-outs stand apart in the source and are kept apart here. Numbered stars: 1 amine (or outer) side, 2 acyl side, 3 side chain; on linkers, the order of the positions; unused ones are H or OH. Bridge positions count the residues as written; N and C are the ends. Square brackets hold non-standard residues; d marks the D form. Peptide text beside a SMILES is read from it. * marks the point of attachment. X2 = O=C1OC(C2CCCN2[*:1])=NC1C(=S)NC(CO)C(=O)[*:2]; X1 = CC(C)CC(=O)C1=NC(C(=S)NCC(=O)*)C(=O)O1

Legend:
[1] = test system: metallothionein; details: in vitro and in vivo experiments; cited from earlier work
[2] = MB in serum after i.p. injection; format: in vivo, rat
Experimental: LPP rats were treated with MB either by daily i.p. injections for 3 or 5 consecutive days, or twice daily i.p. injections for 8 consecutive days at a dose of 150 mg/kg bw or 4 days via the drinking water with D-PA at a dose of 100 mg/kg bw/d or TETA at 480 mg/kg bw/d, respectively (Togashi et al., Hepatology 15, 82-87 (1992)). Based on a mean copper content of 250 μg/g w.w. in Atp7b−/− rat livers at the age of treatment start (Zischka et al., log. cit.), a LPP−/− rat liver of 8 g w.w. contains around 31.5 μmol copper. Single MB doses were chosen equimolar to this copper amount. […] Assuming 40 ml water intake per day for a rat weighing 250 g this translates to a dose of 480 mg/kg bw/d. With respect to the mean liver copper content in LPP−/− rats aged 85 days, the molar ratios of the chelators applied was MB 1:D-PA 4.3:TETA 17.4, respectively. […]
Competitive ELISA. […] After 10 min, the plates were washed, bound antibodies against MB were detected with HRP conjugated mAbs against the rat IgG isotypes and HRP was visualized with TMB. MAbs that recognized free MB (no signal when pre-incubated with MB, positive signal in the buffer control) were further analyzed in a serial dilution of MB (1000 ng/ml to 2 ng/ml). […]

[3] = test system: LPP−/− mitochondria; assay: Chelator treatment of freshly isolated copper burdened LPP−/− mitochondria (copper extraction); set-up: species or system rat; details: 2 mM each, 30 min incubation

## CSCCC(NC(=O)C1CSSCC(NC(=O)C(CO)NC(=O)CNC(=S)C2N=C(C(=O)CC(C)C)OC2=O)C(=O)NC(Cc2ccc(O)cc2)C(=O)N2CCCC2C2=NC(C(=O)O2)C(=S)NC(CO)C(=O)N1)C(=O)O (stereo not shown) [MB] (X1-SCY[X2]CM-OH; disulfide 2-5; configuration not given here)
[1]
  removal of Cu from metallothionein: has been shown to remove Cu from metallothionein
[2]
  time MB detectable in the serum: 30 min
[2]; n=2
  time MB detectable in the serum: half an hour
[3]
  copper associated with LPP−/− mitochondria: rapidly decreased copper
